Test results published in ChEMBL document CHEMBL1201862, “PubChem BioAssay data set” (2004).
Values belong to the molecule of their own block, whether it stands above or below them. Active and inactive are the calls of the source.

Columns and labels:
[1] = biological target: T1, Nucleotide-binding oligomerization domain-containing protein 2 (Homo sapiens, UniProt Q9HC29); assay: inhibition of NOD2 signaling – set 2, SAR follow-up (AID 2475); format: functional
Interleukin-8 [2] = biological target: T2, Interleukin-8 (Homo sapiens, UniProt P10145); assay: SAR analysis of Tumor necrosis factor alpha (TNF-alpha) induced IL-8 secretion in MCF-7/NOD1 cells - Set 2. [Related pubchem assays (depositor defined):AID1575, AID2250, AID2260]; format: functional, cell-based
T2 sequence (P10145 whole entry): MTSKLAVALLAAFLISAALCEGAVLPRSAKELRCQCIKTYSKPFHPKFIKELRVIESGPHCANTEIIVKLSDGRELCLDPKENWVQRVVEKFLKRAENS

[3] = biological target: T1, Nucleotide-binding oligomerization domain-containing protein 2; assay: inhibition of MDP-driven NOD2 NF-kB reporter – cell-based, set 3, SAR follow-up (AID 2799); format: functional
[4] = biological target: T3, Nucleotide-binding oligomerization domain-containing protein 1 (Homo sapiens, UniProt Q9Y239); assay: SAR analysis of NF-kappaB dependent luciferase using DAP as an inducer - Set 2. [Related pubchem assays (depositor defined):AID1566, AID1575, AID1578, AID1579, AID1849, AID1852, AID2264]; format: functional
T3 sequence (Q9Y239 whole entry): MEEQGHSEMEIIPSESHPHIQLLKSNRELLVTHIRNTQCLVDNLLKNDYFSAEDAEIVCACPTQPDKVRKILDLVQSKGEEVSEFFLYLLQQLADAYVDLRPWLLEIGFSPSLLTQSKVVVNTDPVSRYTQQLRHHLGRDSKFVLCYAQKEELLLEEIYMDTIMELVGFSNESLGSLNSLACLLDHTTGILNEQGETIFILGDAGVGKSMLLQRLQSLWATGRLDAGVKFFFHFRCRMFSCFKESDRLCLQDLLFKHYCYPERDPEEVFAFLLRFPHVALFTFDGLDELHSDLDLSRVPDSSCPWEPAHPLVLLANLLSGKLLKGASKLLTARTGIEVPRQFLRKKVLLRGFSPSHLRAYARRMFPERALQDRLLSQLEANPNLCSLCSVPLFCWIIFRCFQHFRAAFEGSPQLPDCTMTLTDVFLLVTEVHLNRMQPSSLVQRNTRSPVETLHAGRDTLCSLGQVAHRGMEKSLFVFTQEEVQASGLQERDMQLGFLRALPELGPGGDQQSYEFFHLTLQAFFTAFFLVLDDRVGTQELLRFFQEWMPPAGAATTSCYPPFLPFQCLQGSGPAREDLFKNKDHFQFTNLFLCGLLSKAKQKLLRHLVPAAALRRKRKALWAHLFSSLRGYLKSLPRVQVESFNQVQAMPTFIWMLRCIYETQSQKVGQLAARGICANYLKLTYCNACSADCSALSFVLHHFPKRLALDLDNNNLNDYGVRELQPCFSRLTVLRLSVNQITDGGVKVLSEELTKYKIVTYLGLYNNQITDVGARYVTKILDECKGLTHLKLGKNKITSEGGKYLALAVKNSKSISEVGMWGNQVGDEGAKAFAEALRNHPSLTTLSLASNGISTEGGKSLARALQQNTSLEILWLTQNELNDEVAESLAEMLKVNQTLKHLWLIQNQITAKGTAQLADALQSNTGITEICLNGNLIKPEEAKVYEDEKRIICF

[5] = biological target: T3, Nucleotide-binding oligomerization domain-containing protein 1; assay: SAR analysis of compounds that inhibit NOD1 - Set 2. [Related pubchem assays (depositor defined):AID1566, AID1575, AID1578, AID1849, AID1852, AID2333, AID2335, AID2798]; format: functional
HEK293 [6] = assay: SAR analysis of compounds that are cytotoxic to HEK293 - Set 3. [Related pubchem assays (depositor defined):AID1575, AID1578, AID1848, AID1849, AID2001, AID2333, AID2334, AID2335, AID2337, AID2469]; format: functional, cell-based; details: Homo sapiens
[7] = biological target: T3, Nucleotide-binding oligomerization domain-containing protein 1; assay: SAR analysis of compounds that inhibit NOD1 - Set 3. [Related pubchem assays (depositor defined):AID1566, AID1575, AID1578, AID1849, AID1852, AID2333, AID2335, AID2466]; format: functional
HEK293 [8] = assay: SAR analysis of compounds that are cytotoxic to HEK293 - Set 2. [Related pubchem assays (depositor defined):AID1575, AID1578, AID1849, AID2001, AID2333, AID2334, AID2335, AID2337, AID2800]; format: functional, cell-based; details: Homo sapiens
Interleukin-8 [9] = biological target: T2, Interleukin-8; assay: SAR analysis of GM-Tri-DAP induced IL-8 secretion in MCF-7/NOD1 cells - Set 2. [Related pubchem assays (depositor defined):AID1575, AID1578, AID2333]; format: functional, cell-based
Tumor necrosis factor = Tumor necrosis factor (Homo sapiens, UniProt P01375); assay: analog potency on TNFa NF-kB signaling – cell-based, set 3, SAR follow-up (AID 2801); format: functional
[10] = biological target: T4, G-protein coupled receptor 55 (Homo sapiens, UniProt Q9Y2T6); assay: inhibition of LPI-stimulated GPR55 beta-arrestin translocation – imaging, U2OS, beta-arrestin-GFP, LPI agonist, primary screen (AID 2013); format: functional;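 note: antagonist potency measured as reduced agonist-driven arrestin aggregation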
[11] = biological target: T5, G-protein coupled receptor 35 (Homo sapiens, UniProt Q9HC97); assay: SAR analysis of Agonists of the GPR35 Receptor using an Image-Based Assay - Set 2. [Related pubchem assays (depositor defined):AID2013, AID2026]; format: functional
Cannabinoid receptor 1 [12] = biological target: T6, Cannabinoid receptor 1 (Homo sapiens, UniProt P21554); assay: SAR analysis of antagonists of the Cannabinoid Receptor 1 using an Image-Based Assay - Set 2. [Related pubchem assays (depositor defined):AID2013, AID2026]; format: functional
Cannabinoid receptor 1 [13] = biological target: T6, Cannabinoid receptor 1; assay: SAR analysis of agonists of the Cannabinoid Receptor 1 using an Image-Based Assay - Set 2. [Related pubchem assays (depositor defined):AID2013, AID2026]; format: functional
[14] = biological target: T4, G-protein coupled receptor 55; assay: blockade of LPI-induced GPR55 arrestin translocation – imaging, U2OS, beta-arrestin-GFP, LPI agonist, set 2, SAR follow-up (AID 2820); format: functional
Cannabinoid receptor 2 [15] = biological target: T7, Cannabinoid receptor 2 (Homo sapiens, UniProt P34972); assay: SAR analysis of agonists of the Cannabinoid Receptor 2 using an Image-Based Assay. [Related pubchem assays (depositor defined):AID2013, AID2026]; format: functional
[16] = biological target: T5, G-protein coupled receptor 35; assay: SAR analysis of Antagonists of the GPR35 Receptor using an Image-Based Assay - Set 3. [Related pubchem assays (depositor defined):AID2013, AID2026]; format: functional
Cannabinoid receptor 2 [17] = biological target: T7, Cannabinoid receptor 2; assay: SAR analysis of antagonists of the Cannabinoid Receptor 2 using an Image-Based Assay. [Related pubchem assays (depositor defined):AID2013, AID2026]; format: functional
Bcl-2-related protein A1 = biological target: T8, Bcl-2-related protein A1 (Mus musculus, UniProt Q07440); format: functional;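 note: confirmatory dose–response counterscreen on Bfl-1, used to check hits from a UBC13 polyubiquitin inhibitor campaign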
T8 sequence (Q07440 whole entry): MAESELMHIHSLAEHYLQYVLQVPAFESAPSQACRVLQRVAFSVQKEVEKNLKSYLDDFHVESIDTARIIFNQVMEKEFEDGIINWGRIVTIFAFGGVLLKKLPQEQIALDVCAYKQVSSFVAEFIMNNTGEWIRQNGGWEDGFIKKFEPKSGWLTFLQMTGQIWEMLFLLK

[18] = biological target: T9, Ubiquitin-conjugating enzyme E2 N (Homo sapiens, UniProt P61088); format: functional
T9 sequence (P61088 whole entry): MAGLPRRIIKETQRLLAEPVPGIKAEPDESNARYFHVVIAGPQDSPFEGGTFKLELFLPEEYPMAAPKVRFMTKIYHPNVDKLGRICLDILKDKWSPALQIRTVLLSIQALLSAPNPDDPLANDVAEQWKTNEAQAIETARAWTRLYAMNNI

[19] = biological target: T9, Ubiquitin-conjugating enzyme E2 N; format: functional; remark: listed apart in the source
[20] = biological target: Intestinal-type alkaline phosphatase (Homo sapiens, UniProt P09923); assay: activation of human intestinal alkaline phosphatase – biochemical, dose response (AID 488873); format: functional
cells [21] = format: functional, cell-based
[22] = biological target: Intestinal-type alkaline phosphatase (Mus musculus, UniProt P24822); assay: PubChem AID 488785; format: functional
[23] = biological target: T10, Induced myeloid leukemia cell differentiation protein Mcl-1 (Homo sapiens, UniProt Q07820); format: functional
[24] = biological target: T10, Induced myeloid leukemia cell differentiation protein Mcl-1; assay: blockers of MCL1 binding to BIM peptide – biochemical, fluorescence polarization, BIM-BH3 peptide, 1536-well, dose response (AID 2217)
Bcl-2-like protein 1 = Bcl-2-like protein 1 (Homo sapiens, UniProt Q07817); assay: blockers of BCLXL peptide binding – biochemical, fluorescence polarization, 1536-well, selectivity assay for MCL1 inhibitor project, dose response (AID 2218)
cells [25] = format: functional, cell-based; remark: listed apart in the source
[26] = biological target: T11, Alkaline phosphatase, tissue-nonspecific isozyme (Homo sapiens, UniProt P05186); assay: TNAP enzyme inhibition by screening hits, dose response, selectivity assay for mouse IAP inhibitor project, biochemical, human TNAP, uHTS hits (AID 488906); format: functional
T11 sequence (P05186 whole entry): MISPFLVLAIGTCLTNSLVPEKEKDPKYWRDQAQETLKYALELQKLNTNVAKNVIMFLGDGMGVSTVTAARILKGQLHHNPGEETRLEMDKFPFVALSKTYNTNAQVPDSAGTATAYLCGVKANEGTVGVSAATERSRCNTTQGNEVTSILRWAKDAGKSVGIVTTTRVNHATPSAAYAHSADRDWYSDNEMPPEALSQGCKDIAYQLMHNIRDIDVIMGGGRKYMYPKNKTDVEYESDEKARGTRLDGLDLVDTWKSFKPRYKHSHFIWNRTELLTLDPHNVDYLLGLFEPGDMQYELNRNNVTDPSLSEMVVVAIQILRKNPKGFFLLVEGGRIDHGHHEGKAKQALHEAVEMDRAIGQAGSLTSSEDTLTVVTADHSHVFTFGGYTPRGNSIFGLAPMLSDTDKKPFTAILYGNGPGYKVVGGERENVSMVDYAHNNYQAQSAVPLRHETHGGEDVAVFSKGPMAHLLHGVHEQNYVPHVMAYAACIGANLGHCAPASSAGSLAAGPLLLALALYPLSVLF

[27] = biological target: T12, Carboxy-terminal domain RNA polymerase II polypeptide A small phosphatase 1 (Homo sapiens, UniProt Q9GZU7); assay: CTDSP1 inhibitors, concentration-response, biochemical, absorbance readout, ultra-high-throughput screen actives (AID 540297); format: functional
T12 sequence (Q9GZU7 whole entry): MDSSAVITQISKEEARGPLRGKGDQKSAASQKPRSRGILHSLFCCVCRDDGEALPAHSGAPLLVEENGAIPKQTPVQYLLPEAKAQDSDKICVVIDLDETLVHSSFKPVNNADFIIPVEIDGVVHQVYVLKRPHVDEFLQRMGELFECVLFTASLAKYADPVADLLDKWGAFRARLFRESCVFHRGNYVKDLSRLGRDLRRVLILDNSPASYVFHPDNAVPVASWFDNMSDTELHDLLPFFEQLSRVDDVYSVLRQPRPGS

T10 sequence (Q07820 whole entry): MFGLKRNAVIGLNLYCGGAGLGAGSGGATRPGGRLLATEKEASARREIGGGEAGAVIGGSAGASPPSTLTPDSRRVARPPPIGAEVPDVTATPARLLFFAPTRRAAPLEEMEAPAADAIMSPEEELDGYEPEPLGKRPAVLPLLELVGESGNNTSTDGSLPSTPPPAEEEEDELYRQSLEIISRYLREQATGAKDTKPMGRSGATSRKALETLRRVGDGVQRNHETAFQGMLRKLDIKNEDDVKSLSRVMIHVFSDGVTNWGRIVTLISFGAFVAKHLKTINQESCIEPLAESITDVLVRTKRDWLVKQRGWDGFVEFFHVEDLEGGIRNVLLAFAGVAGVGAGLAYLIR
T5 sequence (Q9HC97 whole entry): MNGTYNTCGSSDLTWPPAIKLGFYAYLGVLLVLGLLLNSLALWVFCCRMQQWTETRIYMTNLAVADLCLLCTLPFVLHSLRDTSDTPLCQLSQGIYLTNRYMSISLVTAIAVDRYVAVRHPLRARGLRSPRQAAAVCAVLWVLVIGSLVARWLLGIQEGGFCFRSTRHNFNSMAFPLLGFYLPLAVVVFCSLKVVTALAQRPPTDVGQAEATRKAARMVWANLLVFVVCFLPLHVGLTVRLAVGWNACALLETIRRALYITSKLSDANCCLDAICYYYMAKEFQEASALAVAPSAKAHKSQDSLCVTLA
T7 sequence (P34972 whole entry): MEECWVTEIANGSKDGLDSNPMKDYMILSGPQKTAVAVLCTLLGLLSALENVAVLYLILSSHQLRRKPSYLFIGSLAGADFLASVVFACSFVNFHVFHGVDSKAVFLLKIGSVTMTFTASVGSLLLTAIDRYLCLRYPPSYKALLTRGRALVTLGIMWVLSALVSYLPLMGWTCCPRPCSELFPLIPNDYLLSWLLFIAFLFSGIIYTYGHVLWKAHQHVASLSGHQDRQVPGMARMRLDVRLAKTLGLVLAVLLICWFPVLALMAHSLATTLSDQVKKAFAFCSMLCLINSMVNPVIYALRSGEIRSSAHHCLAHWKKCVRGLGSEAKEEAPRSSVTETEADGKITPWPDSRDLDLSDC
T4 sequence (Q9Y2T6 whole entry): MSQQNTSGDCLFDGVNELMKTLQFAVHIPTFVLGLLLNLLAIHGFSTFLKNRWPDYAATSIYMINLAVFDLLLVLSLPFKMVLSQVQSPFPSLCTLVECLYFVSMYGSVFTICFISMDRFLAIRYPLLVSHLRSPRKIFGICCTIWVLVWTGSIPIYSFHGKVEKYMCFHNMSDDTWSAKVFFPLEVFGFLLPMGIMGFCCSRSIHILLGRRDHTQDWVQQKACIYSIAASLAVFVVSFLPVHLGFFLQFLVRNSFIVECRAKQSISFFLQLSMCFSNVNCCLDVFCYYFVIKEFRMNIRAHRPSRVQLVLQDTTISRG
T6 sequence (P21554 whole entry): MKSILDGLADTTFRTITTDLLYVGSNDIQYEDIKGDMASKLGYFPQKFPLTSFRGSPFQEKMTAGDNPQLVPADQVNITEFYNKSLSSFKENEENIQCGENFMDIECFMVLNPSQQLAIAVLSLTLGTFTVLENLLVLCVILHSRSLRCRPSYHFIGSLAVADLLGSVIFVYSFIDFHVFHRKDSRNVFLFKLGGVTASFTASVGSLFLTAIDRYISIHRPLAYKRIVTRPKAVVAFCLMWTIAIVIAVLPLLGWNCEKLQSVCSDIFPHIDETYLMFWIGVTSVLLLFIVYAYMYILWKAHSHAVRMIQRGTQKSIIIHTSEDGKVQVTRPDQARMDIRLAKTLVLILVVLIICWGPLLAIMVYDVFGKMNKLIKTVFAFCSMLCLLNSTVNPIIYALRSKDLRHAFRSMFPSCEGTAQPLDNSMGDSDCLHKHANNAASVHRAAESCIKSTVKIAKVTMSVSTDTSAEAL
T1 sequence (Q9HC29 whole entry, the tested form may be a part): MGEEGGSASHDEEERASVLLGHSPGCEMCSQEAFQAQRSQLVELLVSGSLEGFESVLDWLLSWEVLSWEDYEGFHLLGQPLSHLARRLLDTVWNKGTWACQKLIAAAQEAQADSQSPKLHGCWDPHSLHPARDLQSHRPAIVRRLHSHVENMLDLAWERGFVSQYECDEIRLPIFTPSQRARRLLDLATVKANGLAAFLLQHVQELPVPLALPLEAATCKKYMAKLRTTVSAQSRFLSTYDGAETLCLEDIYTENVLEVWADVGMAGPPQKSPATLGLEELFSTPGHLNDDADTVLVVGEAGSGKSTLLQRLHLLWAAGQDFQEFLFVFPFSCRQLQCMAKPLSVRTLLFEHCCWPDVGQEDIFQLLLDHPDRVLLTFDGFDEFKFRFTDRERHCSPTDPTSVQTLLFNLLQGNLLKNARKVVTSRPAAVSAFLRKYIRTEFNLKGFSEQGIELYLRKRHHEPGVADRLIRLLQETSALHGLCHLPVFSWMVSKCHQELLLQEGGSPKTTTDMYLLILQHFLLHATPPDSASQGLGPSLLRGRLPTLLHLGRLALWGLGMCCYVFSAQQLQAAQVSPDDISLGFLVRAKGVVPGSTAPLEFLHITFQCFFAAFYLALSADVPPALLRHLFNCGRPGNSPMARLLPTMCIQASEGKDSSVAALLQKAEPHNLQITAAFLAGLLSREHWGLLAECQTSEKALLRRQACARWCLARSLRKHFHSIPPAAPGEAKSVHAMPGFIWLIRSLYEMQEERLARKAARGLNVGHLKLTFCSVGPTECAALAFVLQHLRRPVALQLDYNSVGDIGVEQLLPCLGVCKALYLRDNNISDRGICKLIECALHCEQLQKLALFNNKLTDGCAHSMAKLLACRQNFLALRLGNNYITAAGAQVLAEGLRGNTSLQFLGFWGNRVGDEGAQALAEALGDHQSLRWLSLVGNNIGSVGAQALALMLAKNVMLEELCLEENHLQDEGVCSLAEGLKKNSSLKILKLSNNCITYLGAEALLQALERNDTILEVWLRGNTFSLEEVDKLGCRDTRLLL
Chain of Intestinal-type alkaline phosphatase (Homo sapiens, UniProt P09923) (P09923 whole entry): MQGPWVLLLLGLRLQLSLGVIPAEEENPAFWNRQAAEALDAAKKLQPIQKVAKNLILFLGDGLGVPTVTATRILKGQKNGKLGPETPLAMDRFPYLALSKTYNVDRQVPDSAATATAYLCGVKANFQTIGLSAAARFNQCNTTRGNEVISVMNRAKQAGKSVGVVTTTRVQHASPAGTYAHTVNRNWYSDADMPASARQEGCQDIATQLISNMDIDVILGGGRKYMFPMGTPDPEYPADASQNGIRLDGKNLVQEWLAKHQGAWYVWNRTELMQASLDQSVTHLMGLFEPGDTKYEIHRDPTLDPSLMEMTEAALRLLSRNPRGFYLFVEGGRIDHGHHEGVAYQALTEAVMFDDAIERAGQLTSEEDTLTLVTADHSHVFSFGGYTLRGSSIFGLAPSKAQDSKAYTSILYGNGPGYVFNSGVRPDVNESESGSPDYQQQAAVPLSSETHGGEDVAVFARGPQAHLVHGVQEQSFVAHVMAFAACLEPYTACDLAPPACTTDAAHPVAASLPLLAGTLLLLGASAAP
Chain of Tumor necrosis factor (P01375 whole entry): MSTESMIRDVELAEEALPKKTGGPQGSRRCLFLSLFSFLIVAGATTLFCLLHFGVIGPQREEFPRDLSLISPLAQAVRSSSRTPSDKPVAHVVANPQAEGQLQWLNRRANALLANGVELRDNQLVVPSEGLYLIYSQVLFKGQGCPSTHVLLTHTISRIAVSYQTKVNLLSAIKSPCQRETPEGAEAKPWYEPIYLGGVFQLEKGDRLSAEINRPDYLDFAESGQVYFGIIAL
Chain of Bcl-2-like protein 1 (Q07817 whole entry): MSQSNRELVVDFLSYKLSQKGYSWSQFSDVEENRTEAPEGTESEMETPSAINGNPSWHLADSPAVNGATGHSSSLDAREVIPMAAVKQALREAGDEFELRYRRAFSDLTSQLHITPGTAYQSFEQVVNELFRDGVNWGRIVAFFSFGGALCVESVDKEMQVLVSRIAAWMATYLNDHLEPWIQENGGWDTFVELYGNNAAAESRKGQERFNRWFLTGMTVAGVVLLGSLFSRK
Chain of Intestinal-type alkaline phosphatase (Mus musculus, UniProt P24822) (P24822 whole entry): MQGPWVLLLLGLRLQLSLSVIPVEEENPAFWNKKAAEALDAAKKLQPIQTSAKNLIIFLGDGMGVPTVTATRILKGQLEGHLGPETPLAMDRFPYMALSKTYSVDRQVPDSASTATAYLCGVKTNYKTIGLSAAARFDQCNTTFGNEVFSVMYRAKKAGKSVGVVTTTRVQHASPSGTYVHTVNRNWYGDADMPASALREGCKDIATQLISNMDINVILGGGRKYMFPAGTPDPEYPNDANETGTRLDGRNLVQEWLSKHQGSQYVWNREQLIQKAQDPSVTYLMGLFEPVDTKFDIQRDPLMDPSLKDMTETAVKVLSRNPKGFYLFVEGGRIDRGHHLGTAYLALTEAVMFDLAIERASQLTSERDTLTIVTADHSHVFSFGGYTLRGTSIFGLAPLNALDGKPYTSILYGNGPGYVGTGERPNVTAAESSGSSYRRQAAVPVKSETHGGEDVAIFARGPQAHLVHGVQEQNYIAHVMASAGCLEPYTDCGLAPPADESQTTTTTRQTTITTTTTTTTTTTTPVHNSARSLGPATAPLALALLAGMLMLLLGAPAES

SMILES: CC(C)n1c(SCCCc2ccccc2)nc2c1c(=O)[nH]c(=O)n2C
IC50 [1]: 17.6 µM (active)
IC50 (Interleukin-8 [2]): > 25 µM (inactive)
IC50 [3]: > 20 µM (inactive)
IC50 [4]: > 25 µM (inactive)
IC50 [5]: 12.3 µM (active)
IC50 (HEK293 [6]): > 20 µM (inactive)
IC50 [7]: > 20 µM (inactive)
IC50 (HEK293 [8]): > 20 µM (inactive)
IC50 (Interleukin-8 [9]): > 25 µM (inactive)
IC50 (Tumor necrosis factor): > 20 µM (inactive)

IC50 [10]: 4.1 µM (active)
EC50 [11]: > 32 µM (inactive)
IC50 (Cannabinoid receptor 1 [12]): > 32 µM (inactive)
EC50 (Cannabinoid receptor 1 [13]): > 32 µM (inactive)
IC50 [14]: 2.72 µM (active)
EC50 (Cannabinoid receptor 2 [15]): > 32 µM (inactive)
IC50 [16]: > 32 µM (inactive)
IC50 (Cannabinoid receptor 2 [17]): > 32 µM (inactive)
SMILES: CC1=CC(C)(C)N2C(=O)C3(SCC(=O)N3c3ccc(O)cc3)c3cc(C)cc1c32 (stereo not given)

IC50 (Bcl-2-related protein A1): > 20 µM (inactive)
IC50 [18]: 4.28 µM (active)
IC50 [19]: 2.18 µM (active)
SMILES: CC1(C)Cc2c(sc(NC(=O)C(=O)NCC3CCCO3)c2C(N)=O)CO1 (stereo not given)

SMILES: O=[N+]([O-])c1cc(S(=O)(=O)c2ccc(O)c([N+](=O)[O-])c2)ccc1O
EC50 [20]: > 100 µM (inactive)
EC50 (cells [21]): > 350 µM (not active)
IC50 [22]: 5.39 µM (active)
IC50 [23]: 2.82 µM (active)
IC50 [24]: 12.5 µM (not active)
IC50 (Bcl-2-like protein 1): > 109 µM (not active)
EC50 (cells [25]): > 350 µM (not active)
IC50 [26]: > 100 µM (inactive)
IC50 [27]: 3.31 µM (active)
